In brackets after ≈: the same amount, converted by molar mass.
How the values were obtained:
Assay type in all cases: functional
[1] = tested on: Pseudomonas aeruginosa; experiment: Antibacterial activity against Pseudomonas aeruginosa by broth microdilution method
[2] = tested on: Pseudomonas aeruginosa; experiment: Antibacterial activity against Pseudomonas aeruginosa ATCC 27853 by broth microdilution method
[3] = tested on: Acinetobacter baumannii; experiment: Antibacterial activity against Acinetobacter baumannii by broth microdilution method
[4] = tested on: Escherichia coli; experiment: Antibacterial activity against Escherichia coli ATCC 25922 by broth microdilution method
[5] = tested on: Escherichia coli; experiment: Antibacterial activity against Escherichia coli by broth microdilution method
[6] = tested on: Staphylococcus aureus; experiment: Antibacterial activity against Staphylococcus aureus by broth microdilution method
[7] = tested on: Enterococcus faecalis; experiment: Antibacterial activity against Enterococcus faecalis by broth microdilution method
[8] = tested on: Staphylococcus aureus; experiment: Antibacterial activity against Staphylococcus aureus ATCC 29213 by broth microdilution method
[9] = tested on: Klebsiella pneumoniae; experiment: Antibacterial activity against Klebsiella pneumonia by broth microdilution method
[10] = tested on: Staphylococcus aureus; experiment: Antibacterial activity against Staphylococcus aureus ATCC 25923 by broth microdilution method
[11] = tested on: Staphylococcus aureus; experiment: Antibacterial activity against methicillin resistant Staphylococcus aureus by broth microdilution method

SMILES | MIC [1] [µg/mL] | MIC [2] [µg/mL] | MIC [3] [µg/mL] | MIC [4] [µg/mL] | MIC [5] [µg/mL] | MIC [6] [µg/mL] | MIC [7] [µg/mL] | MIC [8] [µg/mL] | MIC [9] [µg/mL] | MIC [10] [µg/mL] | MIC [11] [µg/mL]
Cc1nccn1CCN1C(=O)C(=O)c2ccccc21 | 128 (≈ 501 µM) | 128 (≈ 501 µM) | 32 (≈ 125 µM) | 128 (≈ 501 µM) | 256 (≈ 1000 µM) | 128 (≈ 501 µM) | 128 (≈ 501 µM) | 256 (≈ 1000 µM) | 64 (≈ 251 µM) | 128 (≈ 501 µM) | 128 (≈ 501 µM)
O=C1C(=O)N(CCn2cnc3ccccc32)c2ccccc21 | 512 (≈ 1760 µM) | 256 (≈ 879 µM) | 128 (≈ 439 µM) | 256 (≈ 879 µM) | 256 (≈ 879 µM) | 64 (≈ 220 µM) | 256 (≈ 879 µM) | 256 (≈ 879 µM) | 128 (≈ 439 µM) | 256 (≈ 879 µM) | 256 (≈ 879 µM)
O=C(/C=C1\C(=O)N(CCn2cncn2)c2ccccc21)c1ccccc1 | 32 (≈ 92.9 µM) | 128 (≈ 372 µM) | 128 (≈ 372 µM) | 8 (≈ 23.2 µM) | 64 (≈ 186 µM) | 128 (≈ 372 µM) | 128 (≈ 372 µM) | 128 (≈ 372 µM) | 64 (≈ 186 µM) | 128 (≈ 372 µM) | 256 (≈ 743 µM)
O=C1C(=O)N(CCn2ccnn2)c2ccccc21 | 128 (≈ 528 µM) | 128 (≈ 528 µM) | 32 (≈ 132 µM) | 128 (≈ 528 µM) | 256 (≈ 1060 µM) | 32 (≈ 132 µM) | 128 (≈ 528 µM) | 256 (≈ 1060 µM) | 256 (≈ 1060 µM) | 256 (≈ 1060 µM) | 256 (≈ 1060 µM)
O=C1C(=O)N(CCn2cncn2)c2ccccc21 | 128 (≈ 528 µM) | 64 (≈ 264 µM) | 128 (≈ 528 µM) | 8 (≈ 33 µM) | 32 (≈ 132 µM) | 128 (≈ 528 µM) | 128 (≈ 528 µM) | 32 (≈ 132 µM) | 128 (≈ 528 µM) | 128 (≈ 528 µM) | 256 (≈ 1060 µM)
O=C(CC1(O)C(=O)N(CCn2cncn2)c2ccccc21)c1ccc(O)cc1 (stereo unspecified) | 256 (≈ 677 µM) | 256 (≈ 677 µM) | 512 (≈ 1350 µM) | 256 (≈ 677 µM) | 256 (≈ 677 µM) | 256 (≈ 677 µM) | 256 (≈ 677 µM) | 256 (≈ 677 µM) | 256 (≈ 677 µM) | 256 (≈ 677 µM) | 256 (≈ 677 µM)
O=C(/C=C1\C(=O)N(CCn2cncn2)c2ccccc21)c1ccc(O)cc1 | 256 (≈ 710 µM) | 256 (≈ 710 µM) | 64 (≈ 178 µM) | 256 (≈ 710 µM) | 128 (≈ 355 µM) | 128 (≈ 355 µM) | 128 (≈ 355 µM) | 32 (≈ 88.8 µM) | 256 (≈ 710 µM) | 128 (≈ 355 µM) | 256 (≈ 710 µM)
Cc1cc2ncn(CCN3C(=O)C(=O)c4ccccc43)c2cc1C | 256 (≈ 802 µM) | 256 (≈ 802 µM) | 32 (≈ 100 µM) | 256 (≈ 802 µM) | 256 (≈ 802 µM) | 256 (≈ 802 µM) | 256 (≈ 802 µM) | 128 (≈ 401 µM) | 128 (≈ 401 µM) | 256 (≈ 802 µM) | 128 (≈ 401 µM)
Cc1ccc(C(=O)/C=C2\C(=O)N(CCn3cncn3)c3ccccc32)cc1 | 128 (≈ 357 µM) | 512 (≈ 1430 µM) | 32 (≈ 89.3 µM) | 256 (≈ 714 µM) | 64 (≈ 179 µM) | 64 (≈ 179 µM) | 256 (≈ 714 µM) | 256 (≈ 714 µM) | 256 (≈ 714 µM) | 8 (≈ 22.3 µM) | 128 (≈ 357 µM)
O=C1C(=O)N(CCn2cnc([N+](=O)[O-])c2)c2ccccc21 | 64 (≈ 224 µM) | 256 (≈ 894 µM) | 32 (≈ 112 µM) | 64 (≈ 224 µM) | 128 (≈ 447 µM) | 128 (≈ 447 µM) | 128 (≈ 447 µM) | 32 (≈ 112 µM) | 64 (≈ 224 µM) | 64 (≈ 224 µM) | 256 (≈ 894 µM)
CCCc1nccn1CCN1C(=O)C(=O)c2ccccc21 | 128 (≈ 452 µM) | 256 (≈ 904 µM) | 32 (≈ 113 µM) | 64 (≈ 226 µM) | 64 (≈ 226 µM) | 64 (≈ 226 µM) | 128 (≈ 452 µM) | 16 (≈ 56.5 µM) | 128 (≈ 452 µM) | 256 (≈ 904 µM) | 128 (≈ 452 µM)
